# From PMC10942258 (PLOS Biology, 2024)
# Target: VP35 (EBOV VP35) (Ebola virus - Mayinga, Zaire, 1976, UniProt Q05127)
# Experiment: biochemical
# Type: binding
# VP35 (EBOV VP35), sequence (Q05127 whole entry, looked up): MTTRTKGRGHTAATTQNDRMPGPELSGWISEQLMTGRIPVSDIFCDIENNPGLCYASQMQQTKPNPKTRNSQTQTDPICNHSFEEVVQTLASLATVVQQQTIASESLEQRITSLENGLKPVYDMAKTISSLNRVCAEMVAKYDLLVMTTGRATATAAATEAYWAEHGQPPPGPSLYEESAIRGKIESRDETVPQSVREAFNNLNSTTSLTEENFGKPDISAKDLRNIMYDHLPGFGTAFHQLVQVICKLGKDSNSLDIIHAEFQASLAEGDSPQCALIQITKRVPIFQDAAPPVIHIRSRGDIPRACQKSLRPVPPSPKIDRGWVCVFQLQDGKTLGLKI
smiles,measurement,value
"Cc1oc(C)c(S(N)(=O)=O)c1C(=O)O [SFC, 2,5-Dimethyl-4-sulfamoyl furan-3-carboxylic acid]",Kd,~375 nM
